Patent publication US20150105252A1, “SUBSTITUTED PYRAZOLES AS HERBICIDES” (E I DU PONT DE NEMOURS AND COMPANY, priority 2013, published 2015)

Assays:
ragweed [1] = test: Test C preemergence; assay type: in vivo, Ambrosia elation; conditions: for Ragweed plant response rating: scale 0 to 100 (0 no effect, 100 complete control)
Method in brief: (§1)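 In this greenhouse assay, seeded soil (loam plus sand) or emerged seedlings in peat-vermiculite medium were treated with formulated compound. Roughly two weeks later (13–15 days), each species was scored visually relative to controls, from 0 for no effect to 100 for complete control.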

soybean [2] = test: Test C preemergence; assay type: in vivo, Glycine max; conditions: for Soybean plant response rating: scale 0 to 100 (0 no effect, 100 complete control)
Method in brief: as §1

barnyardgrass = test: Test C preemergence; assay type: in vivo, Echinochloa crus-galli; conditions: for Barnyardgrass plant response rating: scale 0 to 100 (0 no effect, 100 complete control)
Method in brief: as §1

waterhemp = test: Test C preemergence; assay type: in vivo, Amaranthus rudis; conditions: for Waterhemp plant response rating: scale 0 to 100 (0 no effect, 100 complete control)
Method in brief: as §1

velvetleaf = test: Test C preemergence; assay type: in vivo, Abutilon theophrasti; conditions: for Velvetleaf plant response rating: scale 0 to 100 (0 no effect, 100 complete control)
Method in brief: as §1

ryegrass, Italian = test: Test C postemergence; assay type: in vivo, Lolium multiflorum
Method in brief: as §1

corn = test: Test C postemergence; assay type: in vivo, Zea mays
Method in brief: as §1

foxtail, giant = test: Test C postemergence; assay type: in vivo, Setaria faberii
Method in brief: as §1

johnsongrass = test: Test C postemergence; assay type: in vivo, Sorghum halepense
Method in brief: as §1

nutsedge, yellow = test: Test C postemergence; assay type: in vivo, Cyperus esculentus
Method in brief: as §1

ragweed [3] = test: Test C postemergence; assay type: in vivo, Ambrosia elation
Method in brief: as §1

soybean [4] = test: Test C postemergence; assay type: in vivo, Glycine max
Method in brief: as §1

oilseed rape = test: Test C postemergence; assay type: in vivo, Brassica napus
Method in brief: as §1

[5] = preemergence, 31 g ai/ha, visual rating, 13 to 15 days
[6] = preemergence, 62 g ai/ha, 13 to 15 days
[7] = preemergence, 125 g ai/ha, 13 to 15 days, scale 0 to 100, 0 = no effect, 100 = complete control
[8] = Postemergence, 31 g ai/ha, visually evaluated after 13 to 15 days
[9] = postemergence, 62 g ai/ha, scale 0 to 100
[10] = postemergence, 250 g ai/ha, scale 0 to 100 (0 no effect, 100 complete control)
[11] = postemergence, 125 g ai/ha, scale 0 to 100, 0 no effect, 100 complete control

## CCOc1cc(C(=O)NC2CC2)nn1Cc1ccnc(OC(F)F)c1 [Compound 133]
Ragweed [1]; Preemergence, 250 g ai/ha
  Plant response rating (scale of 0 to 100), Ragweed: 100
Ragweed [1]; [5]
  Ragweed plant response rating: 10
Ragweed [1]; [6]
  Ragweed plant response rating: 60
Ragweed [1]; [7]
  Plant response rating, Ragweed: 100
Soybean [2]; Preemergence, 250 g ai/ha
  Plant response rating (scale of 0 to 100), Soybean: 95
Soybean [2]; [5]
  Soybean plant response rating: 50
Soybean [2]; [6]
  Soybean plant response rating: 40
Soybean [2]; [7]
  Plant response rating, Soybean: 85
barnyardgrass; Preemergence, 250 g ai/ha
  Plant response rating (scale of 0 to 100), Barnyardgrass: 100
barnyardgrass; preemergence, 31 g ai/ha, 13 to 15 days
  Barnyardgrass plant response rating: 65
barnyardgrass; [6]
  Barnyardgrass plant response rating: 60
barnyardgrass; [7]
  Plant response rating, Barnyardgrass: 100
waterhemp; Preemergence, 250 g ai/ha
  Plant response rating (scale of 0 to 100), Waterhemp: 100
waterhemp; [5]
  Waterhemp plant response rating: 85
waterhemp; [6]
  Waterhemp plant response rating: 100
waterhemp; [7]
  Plant response rating, Waterhemp: 100
velvetleaf; Preemergence, 250 g ai/ha
  Plant response rating (scale of 0 to 100), Velvetleaf: 100
velvetleaf; [5]
  Velvetleaf plant response rating: 35
velvetleaf; [6]
  Velvetleaf plant response rating: 55
velvetleaf; [7]
  Plant response rating, Velvetleaf: 100
ryegrass, Italian; [8]
  Plant response rating (scale of 0 to 100 where 0 is no effect and 100 is complete control), Ryegrass, Italian: 5
ryegrass, Italian; [9]
  Ryegrass, Italian plant response rating: 5
ryegrass, Italian; [10]
  Plant response rating, Ryegrass, Italian: 10
ryegrass, Italian; [11]
  Plant response rating, Ryegrass, Italian: 5
corn; [8]
  Plant response rating (scale of 0 to 100 where 0 is no effect and 100 is complete control), Corn: 10
corn; [9]
  Corn plant response rating: 10
corn; [10]
  Plant response rating, Corn: 35
corn; [11]
  Plant response rating, Corn: 10
foxtail, giant; [8]
  Plant response rating (scale of 0 to 100 where 0 is no effect and 100 is complete control), Foxtail, Giant: 35
foxtail, giant; [9]
  Foxtail, Giant plant response rating: 40
foxtail, giant; [10]
  Plant response rating, Foxtail, Giant: 80
foxtail, giant; [11]
  Plant response rating, Foxtail, Giant: 50
johnsongrass; [8]
  Plant response rating (scale of 0 to 100 where 0 is no effect and 100 is complete control), Johnsongrass: 5
johnsongrass; [9]
  Johnsongrass plant response rating: 5
johnsongrass; [10]
  Plant response rating, Johnsongrass: 5
johnsongrass; [11]
  Plant response rating, Johnsongrass: 5
nutsedge, yellow; [8]
  Plant response rating (scale of 0 to 100 where 0 is no effect and 100 is complete control), Nutsedge, Yellow: 5
nutsedge, yellow; [9]
  Nutsedge, Yellow plant response rating: 5
nutsedge, yellow; [10]
  Plant response rating, Nutsedge, Yellow: 15
nutsedge, yellow; [11]
  Plant response rating, Nutsedge, Yellow: 5
Ragweed [3]; [8]
  Plant response rating (scale of 0 to 100 where 0 is no effect and 100 is complete control), Ragweed: 25
Ragweed [3]; [9]
  Ragweed plant response rating: 25
Ragweed [3]; [10]
  Plant response rating, Ragweed: 85
Ragweed [3]; [11]
  Plant response rating, Ragweed: 75
Soybean [4]; [8]
  Plant response rating (scale of 0 to 100 where 0 is no effect and 100 is complete control), Soybean: 85
Soybean [4]; [9]
  Soybean plant response rating: 75
Soybean [4]; [10]
  Plant response rating, Soybean: 95
Soybean [4]; [11]
  Plant response rating, Soybean: 95
Oilseed rape; [8]
  Plant response rating (scale of 0 to 100 where 0 is no effect and 100 is complete control), Oilseed Rape: 50
Oilseed rape; [9]
  Oilseed Rape plant response rating: 60
Oilseed rape; [10]
  Plant response rating, Oilseed Rape: 85
Oilseed rape; [11]
  Plant response rating, Oilseed Rape: 75
